Measured values reported in ChEMBL document CHEMBL2413038, “Synthesis and bioevaluation of novel 4-aminoquinoline-tetrazole derivatives as potent antimalarial agents” (Eur J Med Chem, 2013).
In brackets after ≈: the same amount, converted by molar mass. Activity calls are given as the source filed them. No cut-off for these calls is given here.

Legend:
[1] = Clearance in Sprague-Dawley rat at 5 mg/kg, po; assay type: ADME, organism-based; set-up: dose 5 mg/kg, route oral; settings: in vivo
Rattus norvegicus [2] = test: AUC (0 to t) in Sprague-Dawley rat at 5 mg/kg, po; assay type: ADME, organism-based, Plasma; set-up: dose 5 mg/kg, route oral; settings: in vivo
Plasma = test: Inhibition of beta-hematin formation in Plasmodium yoelii-infected Swiss albino mouse plasma using hemin as substrate after 16 hrs; assay type: functional, cell-free
Rattus norvegicus [3] = test: Volume of distribution in Sprague-Dawley rat at 5 mg/kg, po; assay type: ADME, organism-based; set-up: dose 5 mg/kg, route oral; settings: in vivo
Rattus norvegicus [4] = test: Elimination half life in Sprague-Dawley rat at 5 mg/kg, po; assay type: ADME, organism-based; set-up: dose 5 mg/kg, route oral; settings: in vivo
Rattus norvegicus [5] = test: Tmax in Sprague-Dawley rat at 5 mg/kg, po; assay type: ADME, organism-based; set-up: dose 5 mg/kg, route oral; settings: in vivo
Plasmodium yoelii [6] = test: Antimalarial activity against chloroquine-resistant Plasmodium yoelii N-67 infected in Swiss mouse assessed as mouse survival at 10 mg/kg, ip qd for 4 days measured on day 28 post infection; assay type: functional, organism-based; set-up: dose 10 mg/kg
Plasmodium yoelii [7] = test: Antimalarial activity against chloroquine-resistant Plasmodium yoelii N-67 infected in Swiss mouse assessed as mean survival time at 10 mg/kg, po for 4 days; assay type: functional
Plasmodium yoelii [8] = test: Antimalarial activity against chloroquine-resistant Plasmodium yoelii N-67 infected in Swiss mouse assessed as cured animal at 10 mg/kg, po for 4 days measured on day 28 post infection; assay type: functional, organism-based; set-up: dose 10 mg/kg
Plasmodium yoelii [9] = test: Antimalarial activity against chloroquine-resistant Plasmodium yoelii N-67 infected in Swiss mouse assessed as mean survival time at 50 mg/kg, ip qd for 4 days; assay type: functional; settings: route intraperitoneal
Plasmodium yoelii [10] = test: Antimalarial activity against chloroquine-resistant Plasmodium yoelii N-67 infected in Swiss mouse assessed as suppression of parasitaemia level at 50 mg/kg, ip qd for 4 days relative to control; assay type: functional; settings: route intraperitoneal
Plasmodium yoelii [11] = test: Antimalarial activity against chloroquine-resistant Plasmodium yoelii N-67 infected in Swiss mouse assessed as cured animal at 50 mg/kg, ip qd for 4 days measured on day 28 post infection relative to control; assay type: functional
Plasmodium falciparum [12] = test: Antimalarial activity against chloroquine-sensitive Plasmodium falciparum 3D7 after 72 hrs by MSF assay; assay type: functional, organism-based; settings: 3D7, 72 h
Plasmodium yoelii [13] = test: Antimalarial activity against chloroquine-resistant Plasmodium yoelii N-67 infected in Swiss mouse assessed as mouse survival at 50 mg/kg, ip qd for 4 days measured on day 28 post infection relative to control; assay type: functional
[14] = Selectivity index, ratio of CC50 for African green monkey Vero cells to IC50 for Plasmodium falciparum; assay type: functional
Plasmodium falciparum [15] = test: Antimalarial activity against chloroquine-resistant Plasmodium falciparum K1 after 72 hrs by MSF assay; assay type: functional, organism-based; settings: K1, 72 h
Plasmodium falciparum [16] = test: Resistance index, ratio of IC50 for chloroquine-resistant Plasmodium falciparum K1 to IC50 for chloroquine-sensitive Plasmodium falciparum 3D7; assay type: functional
Plasmodium falciparum [17] = test: Ratio of chloroquine IC50 to compound IC50 for chloroquine-resistant Plasmodium falciparum K1; assay type: functional
[18] = Tmax in Sprague-Dawley rat at 10 mg/kg, po; assay type: ADME, organism-based; set-up: dose 10 mg/kg, route oral; settings: in vivo
[19] = Cmax in Sprague-Dawley rat at 10 mg/kg, po; assay type: ADME, organism-based; set-up: dose 10 mg/kg, route oral; settings: in vivo
[20] = Clearance in Sprague-Dawley rat at 10 mg/kg, po; assay type: ADME, organism-based; set-up: dose 10 mg/kg, route oral; settings: in vivo
[21] = Elimination half life in Sprague-Dawley rat at 10 mg/kg, po; assay type: ADME, organism-based; set-up: dose 10 mg/kg, route oral; settings: in vivo, read-out: beta t1/2 (converted)
Rattus norvegicus [22] = test: Volume of distribution in Sprague-Dawley rat at 10 mg/kg, po; assay type: ADME, organism-based; set-up: dose 10 mg/kg, route oral; settings: in vivo
Plasmodium yoelii [23] = test: Antimalarial activity against chloroquine-resistant Plasmodium yoelii N-67 infected in Swiss mouse assessed as mean survival time at 100 mg/kg, po qd for 4 days; assay type: functional
[24] = AUC (0 to t) in Sprague-Dawley rat at 10 mg/kg, po; assay type: ADME, organism-based; set-up: dose 10 mg/kg, route oral; settings: plasma
Plasmodium yoelii [25] = test: Antimalarial activity against chloroquine-resistant Plasmodium yoelii N-67 infected in Swiss mouse assessed as suppression of parasitaemia level at 100 mg/kg, po qd for 4 days relative to control; assay type: functional
Plasmodium yoelii [26] = test: Antimalarial activity against chloroquine-resistant Plasmodium yoelii N-67 infected in Swiss mouse assessed as mouse survival at 100 mg/kg, po qd for 4 days measured on day 28 post infection relative to control; assay type: functional
Plasmodium yoelii [27] = test: Antimalarial activity against chloroquine-resistant Plasmodium yoelii N-67 infected in Swiss mouse assessed as cured animal at 100 mg/kg, po for 4 days measured on day 28 post infection relative to control; assay type: functional

SMILES	IC50 (Plasma) [µg/mL]	inhibition (Plasma)	MST (Plasmodium yoelii [9]) [days]	Activity (Plasmodium yoelii [10]) [%]	IC50 (Plasmodium falciparum [12]) [nM]	Ratio CC50/IC50 [14]	IC50 (Plasmodium falciparum [15]) [nM]	Ratio IC50 (Plasmodium falciparum [16])	further results
CCN(CC)CCCC(C)Nc1ccnc2cc(Cl)ccc12 (stereo unspecified) [CHLOROQUINE]	3.95 (≈ 12.3 µM)	Dose-dependent effect							CL/F [1]: 2.5 mL/min; AUCt (Rattus norvegicus [2]): 30.147 ng·h/mL; Vd (Rattus norvegicus [3]): 1.49 L; beta t1/2 (Rattus norvegicus [4]): 9.5 h; Tmax (Rattus norvegicus [5]): 0.91 h; Activity (Plasmodium yoelii [6]): inactive; MST (Plasmodium yoelii [7]): 16.5 days; Activity (Plasmodium yoelii [8]): inactive
CC(C)(C)n1nnnc1C(c1ccc(Cl)cc1)N1CCN(c2ccnc3cc(Cl)ccc23)CC1 (stereo unspecified)	5.32 (≈ 10.7 µM)	Dose-dependent effect	13	73.91	787	182.96	159	0.2	Activity (Plasmodium yoelii [11]): inactive; Activity (Plasmodium yoelii [13]): inactive
COc1ccc(C(Nc2ccc(Nc3ccnc4cc(Cl)ccc34)cc2)c2nnnn2C2CCCCC2)cc1OC (stereo unspecified)	5.19 (≈ 9.1 µM)	Dose-dependent effect			853	49.73	144	0.1	
CC(C)(C)n1nnnc1C(NCCCNc1ccnc2cc(Cl)ccc12)c1ccc(Cl)cc1 (stereo unspecified)	5.95 (≈ 12.3 µM)	Dose-dependent effect			81.4	248.65	754	9.2	
CC(C)(C)n1nnnc1C(NCCNc1ccnc2cc(Cl)ccc12)c1cccc2ccccc12 (stereo unspecified)	6.33 (≈ 13 µM)	Dose-dependent effect			120	305.32	184	1.5	
Cc1ccc(C(Nc2ccc(Nc3ccnc4cc(Cl)ccc34)cc2)c2nnnn2C(C)(C)C)cc1 (stereo unspecified)	5.39 (≈ 10.8 µM)	Dose-dependent effect	11	21.3	1010		75.4	0.07	Activity (Plasmodium yoelii [11]): inactive; Ratio IC50 (Plasmodium falciparum [17]): 3.38; Activity (Plasmodium yoelii [13]): inactive
CC(C)(C)n1nnnc1C(Nc1ccc(Nc2ccnc3cc(Cl)ccc23)cc1)c1ccc(Br)cc1 (stereo unspecified)	5.65 (≈ 10 µM)	Dose-dependent effect	26	99.99	11.8	2332.43	234	19.8	Tmax [18]: 1.5 h; Activity (Plasmodium yoelii [11]; route intraperitoneal): 60%; Cmax [19]: 44.4 ng/mL; CL/F [20]: 32.3 mL/min; half-life [21]: 22.6 h; Activity (Plasmodium yoelii [13]; route intraperitoneal): 80%; Vd (Rattus norvegicus [22]): 63.38 L; MST (Plasmodium yoelii [23]): 25.6 days; AUC(0-t) [24]: 704 ng·h/mL; Activity (Plasmodium yoelii [25]): 99.99%; Activity (Plasmodium yoelii [26]): 60%; Activity (Plasmodium yoelii [27]): 40%
CC(C)(C)n1nnnc1C(Nc1ccc(Nc2ccnc3cc(Cl)ccc23)cc1)c1ccc(F)cc1 (stereo unspecified)	5.49 (≈ 10.9 µM)	Dose-dependent effect			29.5	3165.31	669	22.67	
COc1ccc(C(NCCCNc2ccnc3cc(Cl)ccc23)c2nnnn2C(C)(C)C)cc1OC (stereo unspecified)	5.5 (≈ 10.8 µM)	Dose-dependent effect			57.9	1662.92	138	2.3	
CC(C)(C)n1nnnc1C(Nc1ccc(Nc2ccnc3cc(Cl)ccc23)cc1)c1ccc(Cl)cc1 (stereo unspecified)	5.29 (≈ 10.2 µM)	Dose-dependent effect	23.6	99.99	10.7	4616.14	143	13.4	Tmax [18]: 2 h; Activity (Plasmodium yoelii [11]; route intraperitoneal): 60%; Cmax [19]: 49.2 ng/mL; CL/F [20]: 61.7 mL/min; half-life [21]: 5.27 h; Activity (Plasmodium yoelii [13]; route intraperitoneal): 60%; Vd (Rattus norvegicus [22]): 28.16 L; MST (Plasmodium yoelii [23]): 25.2 days; AUC(0-t) [24]: 593 ng·h/mL; Activity (Plasmodium yoelii [25]): 99.99%; Activity (Plasmodium yoelii [26]): 60%; Activity (Plasmodium yoelii [27]): 60%
COc1ccc(C(Nc2ccc(Nc3ccnc4cc(Cl)ccc34)cc2)c2nnnn2C(C)(C)C)cc1 (stereo unspecified)	5.55 (≈ 10.8 µM)	Dose-dependent effect			57.7	702.34	384	6.6	
